Source: ChEMBL document CHEMBL1126733, “Orally active, nonpeptide vasopressin V1 antagonists. A novel series of 1-(1-substituted 4-piperidyl)-3,4-dihdyro-2(1H)-quinolinone” (J Med Chem, 1993)
pIC50: −log10 of the molar value. Active and inactive are the calls of the source. No cut-off for these calls is given here.

How the values were obtained:
[1] = target: Vasopressin V2 receptor (Rattus norvegicus, UniProt Q00788); assay: Ability to displace [3H]- Arginine Vasopressin (AVP) from its specific binding sites in rat […]
Chain of Vasopressin V2 receptor (Q00788 whole entry): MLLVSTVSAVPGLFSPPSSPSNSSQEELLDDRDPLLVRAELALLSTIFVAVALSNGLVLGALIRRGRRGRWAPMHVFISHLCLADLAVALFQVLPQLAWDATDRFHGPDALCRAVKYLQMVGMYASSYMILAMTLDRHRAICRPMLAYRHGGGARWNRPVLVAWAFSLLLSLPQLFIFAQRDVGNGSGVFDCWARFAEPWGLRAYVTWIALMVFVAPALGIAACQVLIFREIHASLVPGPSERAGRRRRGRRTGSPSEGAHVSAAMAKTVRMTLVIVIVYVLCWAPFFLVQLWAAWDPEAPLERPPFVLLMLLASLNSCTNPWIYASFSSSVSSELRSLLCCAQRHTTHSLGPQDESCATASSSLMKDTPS

[2] = target: Vasopressin V1a receptor (Rattus norvegicus, UniProt P30560); assay: Ability to displace [3H]- Arginine Vasopressin (AVP) from its specific binding sites in rat liver (V1 receptor)
Chain of Vasopressin V1a receptor (P30560 whole entry): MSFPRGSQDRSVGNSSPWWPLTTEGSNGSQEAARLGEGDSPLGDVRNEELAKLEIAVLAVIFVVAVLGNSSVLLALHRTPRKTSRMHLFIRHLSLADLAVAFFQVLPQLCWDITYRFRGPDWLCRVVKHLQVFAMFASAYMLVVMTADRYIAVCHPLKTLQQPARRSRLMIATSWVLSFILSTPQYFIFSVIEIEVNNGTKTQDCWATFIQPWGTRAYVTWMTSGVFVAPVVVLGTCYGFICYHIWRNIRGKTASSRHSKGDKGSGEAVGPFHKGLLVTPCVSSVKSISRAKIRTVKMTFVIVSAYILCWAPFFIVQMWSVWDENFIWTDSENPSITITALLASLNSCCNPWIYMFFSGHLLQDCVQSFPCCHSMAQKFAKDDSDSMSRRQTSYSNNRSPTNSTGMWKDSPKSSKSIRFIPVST

[3] = target: Vasopressin V1a receptor (Rattus norvegicus) (UniProt P30560); assay: Inhibition expressed as percent change in diastolic blood pressure increased by AVP (30 milliunits / kg, iv) before and after oral administration at 20 uM/kg); No effect; assay type: functional, organism-based; details: Artery
Chain of Vasopressin V1a receptor (Rattus norvegicus) (P30560 whole entry, looked up): as the sequence (P30560 whole entry) above

[4] = target: Vasopressin V1a receptor (Rattus norvegicus) (UniProt P30560); assay: Inhibition expressed as percent change in diastolic blood pressure increased by AVP (30 milliunits / kg, iv) before and after oral administration at 79 uM/kg (n=7); assay type: functional, organism-based; details: Artery
[5] = target: Vasopressin V1a receptor (Rattus norvegicus) (UniProt P30560); assay: Inhibition dose for AVP (30 milliunits/kg, iv) induced vasoconstriction when orally administarted; assay type: functional, organism-based
[6] = target: Vasopressin V1a receptor (Rattus norvegicus) (UniProt P30560); assay: Inhibition expressed as percent change in diastolic blood pressure increased by AVP (30 milliunits / kg, iv) before and after oral administration at 21 uM/kg; assay type: functional, organism-based; details: Artery
[7] = target: Vasopressin V1a receptor (Rattus norvegicus) (UniProt P30560); details: Artery; 22 uM
Description: Inhibition expressed as percent change in diastolic blood pressure increased by AVP (30 milliunits / kg, iv) before and after oral administration at 22 uM/kg

[8] = target: Vasopressin V1a receptor (Rattus norvegicus) (UniProt P30560); assay: Inhibition expressed as percent change in diastolic blood pressure increased by AVP (30 milliunits / kg, iv) before and after oral administration at 23 uM/kg; assay type: functional, organism-based; details: Artery
[9] = target: Vasopressin V1a receptor (Rattus norvegicus) (UniProt P30560); assay: Inhibition expressed as percent change in diastolic blood pressure increased by AVP (30 milliunits / kg, iv) before and after oral administration at 270 uM/kg; assay type: functional, organism-based; details: Artery
[10] = target: Vasopressin V1a receptor (Rattus norvegicus) (UniProt P30560); assay: Inhibition expressed as percent change in diastolic blood pressure increased by AVP (30 milliunits / kg, iv) before and after oral administration at 76 uM/kg (n=4); assay type: functional, organism-based; details: Artery
[11] = target: Vasopressin V1a receptor (Rattus norvegicus) (UniProt P30560); details: Artery; 290 uM
Description: Inhibition expressed as percent change in diastolic blood pressure increased by AVP (30 milliunits / kg, iv) before and after oral administration at 290 uM/kg

NCCOc1ccc(C(=O)N2CCC(N3C(=O)CCc4ccccc43)CC2)cc1
pIC50 [1]: < 4.00 | pIC50 [2]: 5.70

Cc1ccccc1C(=O)N1CCC(N2C(=O)CCc3ccccc32)CC1
pIC50 [1]: < 4.00 | pIC50 [2]: 5.08

O=C(c1ccc(Br)cc1)N1CCC(N2C(=O)CCc3ccccc32)CC1
pIC50 [1]: 4.14 | pIC50 [2]: 6.30

NCCCCCOc1ccc(C(=O)N2CCC(N3C(=O)CCc4ccccc43)CC2)cc1
pIC50 [1]: < 4.00 | pIC50 [2]: 6.55

CC(=O)NCCCCCCOc1ccc(C(=O)N2CCC(N3C(=O)CCc4ccccc43)CC2)cc1
pIC50 [1]: < 4.00 | pIC50 [2]: 6.92

O=C(c1cccc([N+](=O)[O-])c1)N1CCC(N2C(=O)CCc3ccccc32)CC1
pIC50 [1]: < 4.00 | pIC50 [2]: 5.51

COC(=O)c1ccc(C(=O)N2CCC(N3C(=O)CCc4ccccc43)CC2)cc1
pIC50 [1]: < 4.00 | pIC50 [2]: 5.46

CCCCc1ccc(C(=O)N2CCC(N3C(=O)CCc4ccccc43)CC2)cc1
pIC50 [1]: 4.08 | pIC50 [2]: 6.46

O=C(c1cccc(O)c1)N1CCC(N2C(=O)CCc3ccccc32)CC1
pIC50 [1]: < 4.00 | pIC50 [2]: 5.20

O=CNCCCCOc1ccc(C(=O)N2CCC(N3C(=O)CCc4ccccc43)CC2)cc1
pIC50 [1]: < 4.00 | pIC50 [2]: 6.60

CCCCOc1ccc(C(=O)N2CCC(N3C(=O)CCc4ccccc43)CC2)cc1
pIC50 [1]: < 4.00 | pIC50 [2]: 6.38

O=C(c1ccc([N+](=O)[O-])cc1)N1CCC(N2C(=O)CCc3ccccc32)CC1
pIC50 [1]: < 4.00 | pIC50 [2]: 5.70

NCCCCCCCCOc1ccc(C(=O)N2CCC(N3C(=O)CCc4ccccc43)CC2)cc1
pIC50 [1]: 4.36 | pIC50 [2]: 7.17 | inhibition [3]: inactive

COc1ccc(C(=O)N2CCC(N3C(=O)CCc4ccccc43)CC2)cc1
pIC50 [1]: < 4.00 | pIC50 [2]: 6.21

CC(=O)N(C)CCCOc1ccc(C(=O)N2CCC(N3C(=O)CCc4ccccc43)CC2)cc1
pIC50 [1]: < 4.00 | pIC50 [2]: 6.27

CC(=O)Oc1cccc(C(=O)N2CCC(N3C(=O)CCc4ccccc43)CC2)c1
pIC50 [1]: < 4.00 | pIC50 [2]: 5.43

NCCCOc1ccc(C(=O)N2CCC(N3C(=O)CCc4ccccc43)CC2)cc1
pIC50 [1]: < 4.00 | pIC50 [2]: 6.12

NCCCCOc1ccc(C(=O)N2CCC(N3C(=O)CCc4ccccc43)CC2)cc1
pIC50 [1]: < 4.00 | pIC50 [2]: 6.48

NC(=O)c1ccc(C(=O)N2CCC(N3C(=O)CCc4ccccc43)CC2)cc1
pIC50 [1]: < 4.00 | pIC50 [2]: 4.96

O=CNCCCOc1ccc(C(=O)N2CCC(N3C(=O)CCc4ccccc43)CC2)cc1
pIC50 [1]: < 4.00 | pIC50 [2]: 6.62

O=C(O)c1ccc(C(=O)N2CCC(N3C(=O)CCc4ccccc43)CC2)cc1
pIC50 [1]: < 4.00 | pIC50 [2]: < 4.00

O=C(Cc1ccccc1)N1CCC(N2C(=O)CCc3ccccc32)CC1
pIC50 [1]: < 4.00 | pIC50 [2]: 4.92

Nc1ccc(C(=O)N2CCC(N3C(=O)CCc4ccccc43)CC2)cc1
pIC50 [1]: < 4.00 | pIC50 [2]: 5.43

CCOc1ccc(C(=O)N2CCC(N3C(=O)CCc4ccccc43)CC2)cc1
inhibition [4]: 75% | pIC50 [1]: < 4.00 | pIC50 [2]: 6.68

Cc1cccc(C(=O)N2CCC(N3C(=O)CCc4ccccc43)CC2)c1
pIC50 [1]: < 4.00 | pIC50 [2]: 5.89

O=C(c1cccc(Cl)c1)N1CCC(N2C(=O)CCc3ccccc32)CC1
pIC50 [1]: < 4.00 | pIC50 [2]: 5.36

CCC(=O)NCCCOc1ccc(C(=O)N2CCC(N3C(=O)CCc4ccccc43)CC2)cc1
pIC50 [1]: < 4.00 | pIC50 [2]: 6.11

O=C(c1ccccc1O)N1CCC(N2C(=O)CCc3ccccc32)CC1
pIC50 [1]: < 4.00 | pIC50 [2]: 5.82

O=C(c1ccccc1Cl)N1CCC(N2C(=O)CCc3ccccc32)CC1
pIC50 [1]: < 4.00 | pIC50 [2]: 5.00

CN(C)c1ccc(C(=O)N2CCC(N3C(=O)CCc4ccccc43)CC2)cc1
pIC50 [1]: < 4.00 | pIC50 [2]: 6.33

CC(=O)NCCCCCCCCOc1ccc(C(=O)N2CCC(N3C(=O)CCc4ccccc43)CC2)cc1
pIC50 [1]: < 4.00 | pIC50 [2]: 6.52

O=C(c1cccs1)N1CCC(N2C(=O)CCc3ccccc32)CC1
pIC50 [1]: < 4.00 | pIC50 [2]: 5.60

CC(=O)NCCCCCOc1ccc(C(=O)N2CCC(N3C(=O)CCc4ccccc43)CC2)cc1
pIC50 [1]: < 4.00 | pIC50 [2]: 6.80 | ID50 [5]: 4.7 µmol/kg | inhibition [6]: 81%

CC(=O)NCCCOc1ccc(C(=O)N2CCC(N3C(=O)CCc4ccccc43)CC2)cc1
pIC50 [1]: < 4.00 | pIC50 [2]: 6.36 | ID50 [5]: 4.4 µmol/kg | inhibition [7]: 93%

CC(=O)NCCOc1ccc(C(=O)N2CCC(N3C(=O)CCc4ccccc43)CC2)cc1
pIC50 [1]: < 4.00 | inhibition [8]: 80% | pIC50 [2]: 6.38 | ID50 [5]: 7.7 µmol/kg

N#Cc1ccc(C(=O)N2CCC(N3C(=O)CCc4ccccc43)CC2)cc1
pIC50 [1]: < 4.00 | pIC50 [2]: 5.51

CCCc1ccc(C(=O)N2CCC(N3C(=O)CCc4ccccc43)CC2)cc1
pIC50 [1]: < 4.00 | pIC50 [2]: 6.48 | inhibition [9]: 86%

O=C(c1ccccc1[N+](=O)[O-])N1CCC(N2C(=O)CCc3ccccc32)CC1
pIC50 [1]: < 4.00 | pIC50 [2]: 5.08

O=C1CCc2ccccc2N1C1CCN(Cc2ccccc2)CC1
pIC50 [1]: < 4.00 | pIC50 [2]: < 4.00

O=C(c1ccccc1)N1CCC(N2C(=O)CCc3ccccc32)CC1
pIC50 [1]: < 4.30 | pIC50 [2]: 5.72

O=C(c1ccco1)N1CCC(N2C(=O)CCc3ccccc32)CC1
pIC50 [1]: < 4.00 | pIC50 [2]: 4.96

CCc1ccc(C(=O)N2CCC(N3C(=O)CCc4ccccc43)CC2)cc1
pIC50 [1]: 4.10 | pIC50 [2]: 6.30

CC(=O)NCCCCOc1ccc(C(=O)N2CCC(N3C(=O)CCc4ccccc43)CC2)cc1
pIC50 [1]: < 4.00 | pIC50 [2]: 6.68 | ID50 [5]: 5.3 µmol/kg | inhibition [6]: 78%

O=C(c1cnccn1)N1CCC(N2C(=O)CCc3ccccc32)CC1
pIC50 [1]: < 4.00 | pIC50 [2]: 4.59

O=C(c1ccc(O)cc1)N1CCC(N2C(=O)CCc3ccccc32)CC1
pIC50 [1]: < 4.00 | pIC50 [2]: 5.89

CC(=O)Oc1ccccc1C(=O)N1CCC(N2C(=O)CCc3ccccc32)CC1
pIC50 [1]: < 4.00 | pIC50 [2]: 5.85

CCCOc1ccc(C(=O)N2CCC(N3C(=O)CCc4ccccc43)CC2)cc1
pIC50 [1]: < 4.00 | inhibition [10]: 65% | pIC50 [2]: 6.49

Cc1ccc(C(=O)N2CCC(N3C(=O)CCc4ccccc43)CC2)cc1
inhibition [11]: 23% | pIC50 [1]: < 4.00 | pIC50 [2]: 6.30

O=C(c1ccc(Cl)cc1)N1CCC(N2C(=O)CCc3ccccc32)CC1
pIC50 [1]: 4.11 | pIC50 [2]: 5.92

CC(=O)Nc1ccc(C(=O)N2CCC(N3C(=O)CCc4ccccc43)CC2)cc1
pIC50 [1]: < 4.00 | pIC50 [2]: 5.55

COC(=O)NCCCOc1ccc(C(=O)N2CCC(N3C(=O)CCc4ccccc43)CC2)cc1
pIC50 [1]: < 4.00 | pIC50 [2]: 6.44

CC(=O)Oc1ccc(C(=O)N2CCC(N3C(=O)CCc4ccccc43)CC2)cc1
pIC50 [1]: < 4.00

CCCCCCOc1ccc(C(=O)N2CCC(N3C(=O)CCc4ccccc43)CC2)cc1
pIC50 [1]: 4.27 | pIC50 [2]: 5.82

O=C(c1ccncc1)N1CCC(N2C(=O)CCc3ccccc32)CC1
pIC50 [1]: < 4.00 | pIC50 [2]: 4.43

O=C(c1ccc(F)cc1)N1CCC(N2C(=O)CCc3ccccc32)CC1
pIC50 [1]: < 4.00 | pIC50 [2]: 5.85

CN1CCC(N2C(=O)CCc3ccccc32)CC1
pIC50 [1]: < 4.30 | pIC50 [2]: < 4.00

NCCCCCCOc1ccc(C(=O)N2CCC(N3C(=O)CCc4ccccc43)CC2)cc1
pIC50 [1]: < 4.00 | pIC50 [2]: 7.00
